melting point [°C]	SMILES
181 to 183	CCCCc1oc2cc(C)c(C(=O)OC)cc2c1C(=O)c1ccc(OCCCN2CCCCC2)cc1.Cl
160	CCCCc1oc2cccc(C(=O)OC)c2c1C(=O)c1ccc(OCCCN2CCCCC2)cc1.O=C(O)C(=O)O [Example 31, Methyl 2-butyl-3-[4-(3-(1-piperidinyl)propoxy]benzoyl]-1-benzofuran-4-carboxylate oxalate]

Source: patent publication US7148240B2, “Aminoalkoxybenzoyl-benzofuran or benzothiophene derivatives, method for preparing same and compositions containing same” (Sanofi-Aventis, priority 2000, dated 2006)
